# Experimental data from article PMC2994747, “Molecular Characterization of c-Abl/c-Src Kinase Inhibitors Targeted against Murine Tumour Progenitor Cells that Express Stem Cell Markers” (PLoS ONE, 2010).
# Assays:
# [1] = tested on: A2C12; experiment: Western blot, semi-quantitative protein expression; assay type: cell-based, mouse
# Protocol: (§1) For the Western Blot analysis, cells were rinsed and lysed as previously described. An amount of 25 µg protein was used for SDS-PAGE. Antibodies for c-Abl (sc-131), Actin (sc-1616), Cdc2-p34 (sc-8395), EPS15 (sc-1840), FAK (sc-558), c-Fos (sc-52), p38 (sc-7972), p53 (sc-6243) and STAT5 (sc-835x) were obtained from Santa Cruz (Santa Cruz Biotechnology, Heidelberg, Germany), while c-Src (2109) and phospho-Src Y416 (2101) were purchased from Cell Signaling (Cell Signaling Technology, Frankfurt a. M., Germany). The EGFR (06-847), phospho-EGFR Y992 (07-821) and phospho-EGFR Y1045 (04-284) stem from Upstate (Upstate, Schwalbach, Germany) and the hnRNP-K (A300-676A) from Bethyl Labs (Bethyl Laboratories, Montgomery, Texas, USA). Finally p73 (IMG-246) was supplied by Imgenex (Imgenex, Hamburg, Germany). Depending on the primary antibody the secondary antibodies were either horseradish peroxidase-conjugated anti-mouse (AP 160P), anti-rabbit (AP 132P) or anti-sheep (AP 147P) (Chemicon, Schwalbach, Germany).
# (§2) Semi-quantitative analysis were carried out with Kodak 1D Image Analysis Software in reference to the vehicle treated control cells (see supplementary table S7).
# [2] = tested on: BetaD5; experiment: Western blot, semi-quantitative protein expression; assay type: cell-based, mouse
# Protocol: as §1, §2
# [3] = tested on: GammaA3; experiment: Western blot, semi-quantitative protein expression; assay type: cell-based, mouse
# Protocol: as §1, §2
# [4] = tested on: GammaD12; experiment: Western blot, semi-quantitative protein expression; assay type: cell-based, mouse
# Protocol: as §1, §2
# [5] = tested on: HepG2; experiment: Western blot, semi-quantitative protein expression; assay type: cell-based, human
# Protocol: as §1, §2
# [6] = tested on: GammaA3; experiment: Whole genome expression analysis (Affymetrix microarray); assay type: cell-based, mouse
# Protocol: The cells were harvested and RNA was isolated using RNeasy Mini Kit (Qiagen, Hilden, Germany) according to the instructions of the manufacturer. The isolated RNA (250 ng) was processed further using standard protocols as described recently with the exception of the 3′ IVT Express Kit (Affymetrix, High Wycombe, UK) that was utilized according to instructions. Quality control of cRNA was done with the Agilent 2100 Bioanalyzer (Agilent Tech according to manufacturer's protocols. Following fragmentation, cRNA of each sample was hybridized to Affymetrix GeneChip® Mouse Genome 430 2.0 or Human Genome U133 Plus 2.0 and scanned with an Affymetrix 3000 7G scanner.
# The resultant data was normalized by Probe Logarithmic Intensity Error Estimation (PLIER) algorithm. Statistical analysis was carried out with the ArrayTrack software (National Center for Toxicological Research/FDA, Jefferson, AR, USA) using SAM algorithm.
# [7] = IC50 concentration, 96 h, SAM FDR<0.01, FC>2
structure (smiles),measurement,setting,value
Fc1ccccc1CNc1ncnc2c1cnn2CC(Cl)c1ccc(Br)cc1 (stereo not drawn) [Si162],Actin protein expression,[1],99
same,EGFR Y992-p protein expression,[1],16
same,EGFR Y1045-p protein expression,[1],0.417
same,EGFR protein expression,[1],23
same,EPS15 protein expression,[1],104
same,FAK protein expression,[1],52
same,STAT5 protein expression,[1],34
same,c-Abl protein expression,[1],50
same,c-Fos protein expression,[1],60
same,c-Src protein expression,[1],121
same,hnRNP-K protein expression,[1],60
same,p38 protein expression,[1],20
same,p53 protein expression,[1],131
same,p73 protein expression,[1],40
same,Actin protein expression,[2],91
same,EGFR Y992-p protein expression,[2],145
same,EGFR Y1045-p protein expression,[2],733
same,EGFR protein expression,[2],92
same,EPS15 protein expression,[2],554
same,FAK protein expression,[2],124
same,STAT5 protein expression,[2],182
same,c-Abl protein expression,[2],24
same,c-Fos protein expression,[2],122
same,c-Src Y416-p protein expression,[2],36
same,c-Src protein expression,[2],110
same,hnRNP-K protein expression,[2],20
same,p38 protein expression,[2],39
same,p53 protein expression,[2],443
same,"c-Src autophosphorylation (Tyr416), in words","[2]; IC50 concentration, 96 h",inhibition of c-Src autophosphorylation
same,Actin protein expression,[3],83
same,EGFR Y992-p protein expression,[3],77
same,EGFR Y1045-p protein expression,[3],69
same,EGFR protein expression,[3],1
same,EPS15 protein expression,[3],90
same,FAK protein expression,[3],111
same,STAT5 protein expression,[3],46
same,c-Abl protein expression,[3],1.79
same,c-Src Y416-p protein expression,[3],205
same,c-Src protein expression,[3],21
same,hnRNP-K protein expression,[3],5
same,p38 protein expression,[3],64
same,p53 protein expression,[3],323
same,Actin protein expression,[4],91
same,EGFR Y992-p protein expression,[4],237
same,EGFR Y1045-p protein expression,[4],309
same,EGFR protein expression,[4],65
same,EPS15 protein expression,[4],179
same,FAK protein expression,[4],108
same,STAT5 protein expression,[4],82
same,c-Abl protein expression,[4],195
same,c-Fos protein expression,[4],123
same,c-Src Y416-p protein expression,[4],105
same,c-Src protein expression,[4],56
same,hnRNP-K protein expression,[4],85
same,p38 protein expression,[4],43
same,p53 protein expression,[4],154
same,Actin protein expression,[5],77
same,Cdc2-p34 protein expression,[5],12
same,EGFR Y992-p protein expression,[5],20
same,EGFR Y1045-p protein expression,[5],60
same,EGFR protein expression,[5],535
same,EPS15 protein expression,[5],56
same,FAK protein expression,[5],96
same,STAT5 protein expression,[5],35
same,c-Abl protein expression,[5],46
same,c-Fos protein expression,[5],58
same,c-Src Y416-p protein expression,[5],82
same,c-Src protein expression,[5],86
same,hnRNP-K protein expression,[5],59
same,p38 protein expression,[5],48
same,p53 protein expression,[5],73
same,"Actg2 (actin, gamma 2, smooth muscle, enteric) regulated gene, Si162 vs Ktr FC",[6],-4.78
same,"Bcl2l11 (BCL2-like 11 (apoptosis facilitator) (Bim)) regulated gene, Si162 vs Ktr FC",[6],1.33
same,"Birc5 (baculoviral IAP repeat-containing 5) regulated gene, Si162 vs Ktr FC",[6],-3.04
same,"Capn5 (calpain 5) regulated gene, Si162 vs Ktr FC",[6],1.96
same,"Casp6 (caspase 6, apoptosis-related cysteine peptidase) regulated gene, Si162 vs Ktr FC",[6],1.07
same,"Ccna2 (cyclin A2) regulated gene, Si162 vs Ktr FC",[6],-2.93
same,"Ccnb2 (cyclin B2) regulated gene, Si162 vs Ktr FC",[6],-2.44
same,"Cdc2 (cell division cycle 2 (Cdk1)) regulated gene, Si162 vs Ktr FC",[6],-2.12
same,"Cdkn1a (cyclin-dependent kinase inhibitor 1A (p21Cip1)) regulated gene, Si162 vs Ktr FC",[6],1.27
same,"Cdkn2b (cyclin-dependent kinase inhibitor 2B (p15)) regulated gene, Si162 vs Ktr FC",[6],1.13
same,"Cdkn3 (cyclin-dependent kinase inhibitor 3) regulated gene, Si162 vs Ktr FC",[6],-2.80
same,"Cenpa (centromere protein A) regulated gene, Si162 vs Ktr FC",[6],-2.62
same,"Crk (v-crk sarcoma virus CT10 oncogene homolog (avian)) regulated gene, Si162 vs Ktr FC",[6],-2.00
same,"Ctnnb1 (catenin (cadherin-associated protein), beta 1, 88kDa) regulated gene, Si162 vs Ktr FC",[6],1.94
same,"Ctsb (cathepsin B) regulated gene, Si162 vs Ktr FC",[6],1.20
same,"Cxcl12 (chemokine (C-X-C motif) ligand 12) regulated gene, Si162 vs Ktr FC",[6],-2.74
same,"Dgka (diacylglycerol kinase, alpha 80kDa) regulated gene, Si162 vs Ktr FC",[6],2.90
same,"Fas (Fas (TNF receptor superfamily, member 6)) regulated gene, Si162 vs Ktr FC",[6],1.40
same,"Gadd45a (growth arrest and DNA-damage-inducible, alpha) regulated gene, Si162 vs Ktr FC",[6],2.78
same,"Grb10 (growth factor receptor-bound protein 10) regulated gene, Si162 vs Ktr FC",[6],3.65
same,"Gsk3b (glycogen synthase kinase 3 beta) regulated gene, Si162 vs Ktr FC",[6],1.12
same,"Itga6 (integrin, alpha 6) regulated gene, Si162 vs Ktr FC",[6],4.04
same,"Jakmip3 (janus kinase and microtubule interacting protein 3) regulated gene, Si162 vs Ktr FC",[6],4.07
same,"Lrdd (leucine-rich repeats and death domain containing (Pidd)) regulated gene, Si162 vs Ktr FC",[6],1.03
same,"Mdm2 (Mdm2 p53 binding protein homolog (mouse)) regulated gene, Si162 vs Ktr FC",[6],2.15
same,"Mmp3 (matrix metallopeptidase 3 (stromelysin 1, progelatinase)) regulated gene, Si162 vs Ktr FC",[6],2.73
same,"Mmp13 (matrix metallopeptidase 13 (collagenase 3)) regulated gene, Si162 vs Ktr FC",[6],2.98
same,"Nfib (nuclear factor I/B) regulated gene, Si162 vs Ktr FC",[6],-1.23
same,"Notch3 (Notch homolog 3 (Drosophila)) regulated gene, Si162 vs Ktr FC",[6],2.78
same,"Ogn (osteoglycin) regulated gene, Si162 vs Ktr FC",[6],-5.01
same,"Perp (PERP, TP53 apoptosis effector) regulated gene, Si162 vs Ktr FC",[6],6.09
same,"Pik3ca (phosphoinositide-3-kinase, catalytic, alpha polypeptide) regulated gene, Si162 vs Ktr FC",[6],1.27
same,"Plcg2 (phospholipase C, gamma 2) regulated gene, Si162 vs Ktr FC",[6],1.36
same,"Plk1 (polo-like kinase 1 (Drosophila)) regulated gene, Si162 vs Ktr FC",[6],-3.17
same,"Pmaip1 (phorbol-12-myristate-13-acetate-induced protein 1 (Noxa)) regulated gene, Si162 vs Ktr FC",[6],1.94
same,"Ptk2 (PTK2 protein tyrosine kinase 2 (FAK)) regulated gene, Si162 vs Ktr FC",[6],1.99
same,"Rock1 (Rho-associated, coiled-coil containing protein kinase 1) regulated gene, Si162 vs Ktr FC",[6],1.14
same,"Spp1 (secreted phosphoprotein 1) regulated gene, Si162 vs Ktr FC",[6],1.01
same,"Srf (serum response factor) regulated gene, Si162 vs Ktr FC",[6],-1.12
same,"Tec (tec protein tyrosine kinase) regulated gene, Si162 vs Ktr FC",[6],3.51
same,"Tgfb2 (transforming growth factor, beta 2) regulated gene, Si162 vs Ktr FC",[6],-1.69
same,"Tnc (tenascin C) regulated gene, Si162 vs Ktr FC",[6],-1.32
same,"Zyx (zyxin) regulated gene, Si162 vs Ktr FC",[6],-1.59
same,"Significantly regulated genes, total (number)","[6]; IC50 concentration, 96 h",more than 3500
same,"Significantly differentially regulated genes, downregulated (number)",[6]; [7],1139
same,"Significantly differentially regulated genes, upregulated (number)",[6]; [7],2453
